{"source": "patent US10023544B2", "about": "“Heterocyclic compound” (Takeda Pharmaceutical Company Limited, priority 2014, dated 2018)", "note": "Structures can show the parent of a compound that is named as a salt."}
{"target": "T1, Human recombinant enteropeptidase (Homo sapiens, UniProt P98073)", "T1 construct": "purchased ITSI-Biosciences, LLC #REN-260", "T1 sequence (P98073 whole entry)": "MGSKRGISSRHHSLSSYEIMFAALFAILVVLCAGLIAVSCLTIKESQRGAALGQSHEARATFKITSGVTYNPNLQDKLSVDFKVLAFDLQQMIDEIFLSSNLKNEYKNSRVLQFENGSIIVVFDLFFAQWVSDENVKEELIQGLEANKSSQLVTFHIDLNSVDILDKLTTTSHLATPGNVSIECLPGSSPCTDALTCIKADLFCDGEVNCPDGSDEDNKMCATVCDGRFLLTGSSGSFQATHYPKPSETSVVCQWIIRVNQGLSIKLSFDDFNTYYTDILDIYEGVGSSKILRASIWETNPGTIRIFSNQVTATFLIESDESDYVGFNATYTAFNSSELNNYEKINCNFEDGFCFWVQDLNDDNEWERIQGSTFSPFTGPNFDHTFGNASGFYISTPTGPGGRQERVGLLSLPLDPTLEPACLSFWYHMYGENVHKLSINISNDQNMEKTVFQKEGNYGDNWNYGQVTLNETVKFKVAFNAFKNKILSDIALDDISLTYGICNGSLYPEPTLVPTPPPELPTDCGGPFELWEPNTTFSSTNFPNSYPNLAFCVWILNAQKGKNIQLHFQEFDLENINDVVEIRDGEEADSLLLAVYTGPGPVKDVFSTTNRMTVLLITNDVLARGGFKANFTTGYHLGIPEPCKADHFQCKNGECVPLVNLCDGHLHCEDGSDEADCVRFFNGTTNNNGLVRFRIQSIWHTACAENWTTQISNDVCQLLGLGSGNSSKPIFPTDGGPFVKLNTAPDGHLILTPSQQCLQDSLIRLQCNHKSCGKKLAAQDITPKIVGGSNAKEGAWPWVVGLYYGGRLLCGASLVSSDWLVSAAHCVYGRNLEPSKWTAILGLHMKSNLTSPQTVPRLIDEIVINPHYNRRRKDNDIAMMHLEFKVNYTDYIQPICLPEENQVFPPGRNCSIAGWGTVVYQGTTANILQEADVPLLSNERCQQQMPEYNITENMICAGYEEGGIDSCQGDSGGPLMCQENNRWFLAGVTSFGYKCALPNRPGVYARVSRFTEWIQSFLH", "assay": "Human enteropeptidase inhibitory activity", "format": "biochemical", "settings": "3.3 uM test compound; fluorescence intensity 2 hours after start of reaction; 3.3 µM", "description": "(§1) Human recombinant enteropeptidase (#REN-260, ITSI-Biosciences, LLC) was diluted with an assay buffer (50 mM Tricine (pH 8.0), 0.01 (w/v) % Tween 20, 10 mM CaCl2) to prepare a 24 mU/mL enzyme solution. Subsequently, 5FAM-Abu-Gly-Asp-Asp-Asp-Lys-Ile-Val-Gly-Gly-Lys(CPQ2)-Lys-Lys-NH2 (purity: 97.2%, CPC Scientific, Inc.) produced according to a synthesis method known per se was diluted with an assay buffer to prepare a 2.1 uM (“u” represents “micro”) substrate solution. Each test compound was dissolved in DMSO to prepare a 1 mM solution, which was then diluted 100-fold with an assay buffer to prepare a compound solution. The compound solution (5 uL/well) and the substrate solution (5 uL/well) were added to a 384-well black plate (#784076, Greiner Bio-One) and mixed. Then, the enzyme solution (5 uL/well) was added to the plate and mixed to start reaction. The fluorescence intensity was measured at an excitation wavelength of 485 nm and a fluorescence wavelength of 535 nm using a fluorescence plate reader EnVision (PerkinElmer Inc.). Also, the same reaction as above was performed except that the test compound was not added (test compound non-supplemented group). In addition, the same reaction as above was performed except that neither the test compound nor the enzyme was added (control group). The inhibition rate was calculated from the fluorescence intensity 2 hours after the start of the reaction according to the following equation: Inhibition rate (%)=(1−(Fluorescence intensity of the test compound supplemented group−Fluorescence intensity of the control group)/(Fluorescence intensity of the test compound non-supplemented group−Fluorescence intensity of the control group))×100", "units": {"Inhibition rate at 3.3 uM (%)": "%"}}
{"smiles": "CC(C)(C)C1CCC(c2cc(OC(=O)c3ccc(NC(=N)N)cc3)cc(C3=NOC(CC(=O)O)(C(=O)O)C3)c2)CC1", "note": "(stereo not drawn) [Example 13, 3-(3-(4-tert-butylcyclohexyl)-5-((4-carbamimidamidobenzoyl)oxy)phenyl)-5-(carboxymethyl)-4,5-dihydro-1,2-oxazole-5-carboxylic acid (cis or trans form)]", "Inhibition rate at 3.3 uM (%)": 100}
{"target": "T1, Human recombinant enteropeptidase", "assay": "Human enteropeptidase inhibitory activity", "format": "biochemical", "settings": "3.3 uM test compound; fluorescence intensity 2 hours after start of reaction; read-out: Inhibition rate at 3.3 uM (%)", "description": "as §1", "units": {"inhibition at 3.3 µM": "%"}}
{"smiles": "N=C(N)Nc1ccc(C(=O)Oc2ccc(CCC(=O)N3CCOCC3)c(C3=NOC(CC(=O)O)(CC(=O)O)C3)c2)cc1", "note": "[Example 26, 2,2′-(3-(5-((4-carbamimidamidobenzoyl)oxy)-2-(3-(morpholin-4-yl)-3-oxopropyl)phenyl)-4,5-dihydro-1,2-oxazole-5,5-diyl) diacetic acid]", "inhibition at 3.3 µM": 100}
{"smiles": "N=C(N)Nc1ccc(C(=O)Oc2cccc(C3=NOC(CCC(=O)O)(CCC(=O)O)C3)c2)cc1", "note": "[Example 4, 3,3′-(3-(3-((4-carba-mimidamidobenzoyl)oxy)phenyl)-4,5-dihydro-1,2-oxazole-5,5-diyl)dipropanoic acid]", "inhibition at 3.3 µM": 101}
{"smiles": "N=C(N)Nc1ccc(C(=O)Oc2ccc(CCC(=O)N[C@@H](CC(=O)O)C(=O)O)c(C3=NOC(CC(=O)O)(CC(=O)O)C3)c2)cc1", "note": "[Example 20, N-(3-(2-(5,5-bis(carboxymethyl)-4,5-dihydro-1,2-oxazol-3-yl)-4-((4-carbamimidamidobenzoyl)oxy)phenyl)propanoyl)-L-aspartic acid]", "inhibition at 3.3 µM": 100}
{"smiles": "N=C(N)Nc1ccc(C(=O)Oc2ccc(C3CCN(C(=O)CCC(=O)N[C@@H](CC(=O)O)C(=O)O)CC3)c(C3=NOC(CC(=O)O)(CC(=O)O)C3)c2)cc1", "note": "[Example 21, N-(4-(4-(2-(5,5-bis(carboxymethyl)-4,5-dihydro-1,2-oxazol-3-yl)-4-((4-carbamimidamidobenzoyl)oxy)phenyl)piperidin-1-yl)-4-oxobutanoyl)-L-aspartic acid]", "inhibition at 3.3 µM": 100}
{"smiles": "N=C(N)Nc1ccc(C(=O)Oc2ccc(CCC(=O)NCCS(=O)(=O)O)c(C3=NOC(CC(=O)O)(CC(=O)O)C3)c2)cc1", "note": "[Example 34, 2,2′-(3-(5-((4-Carbamimidamidobenzoyl)oxy)-2-(3-oxo-3-((2-sulfoethyl)amino)propyl)phenyl)-4,5-dihydro-1,2-oxazole-5,5-diyl)diacetic acid]", "inhibition at 3.3 µM": 101}
{"smiles": "N=C(N)Nc1ccc(C(=O)Oc2ccc(CCC(=O)O)c(C3=NOC(CC(=O)O)(CC(=O)O)C3)c2)cc1", "note": "[Example 24, 3-(2-(5,5-bis(carboxymethyl)-4,5-dihydro-1,2-oxazol-3-yl)-4-((4-carbamimidamidobenzoyl)oxy)phenyl)propanoic acid]", "inhibition at 3.3 µM": 100}
{"smiles": "N=C(N)Nc1ccc(C(=O)Oc2ccc(C3=NOC(CC(=O)O)(C(=O)O)C3)cc2)cc1", "note": "(stereo not shown) [Example 2, 3-(4-((4-carba-mimidamidobenzoyl)oxy)phenyl)-5-(carboxymethyl)-4,5-dihydro-1,2-oxazole-5-carboxylic acid]", "inhibition at 3.3 µM": 101}
{"smiles": "Cc1ccc(OC(=O)c2ccc(NC(=N)N)cc2)cc1C1=NOC(CC(=O)O)(C(=O)O)C1", "note": "(stereo not shown) [Example 3, 3-(5-((4-Carbamimidamidobenzoyl)oxy)-2-methylphenyl)-5-(carboxymethyl)-4,5-dihydro-1,2-oxazole-5-carboxylic acid trifluoroacetate]", "inhibition at 3.3 µM": 101}
{"smiles": "CN(CC(=O)O)C(=O)CCc1ccc(OC(=O)c2ccc(NC(=N)N)cc2)cc1C1=NOC(CC(=O)O)(CC(=O)O)C1", "note": "[Example 31, N-(3-(2-(5,5-bis(carboxymethyl)-4,5-dihydro-1,2-oxazol-3-yl)-4-((4-carbamimidamidobenzoyl)oxy)phenyl)propanoyl)-N-methylglycine]", "inhibition at 3.3 µM": 100}
{"smiles": "Cc1cc(OC(=O)c2ccc(NC(=N)N)cc2)cc(C2=NOC(CC(=O)O)(C(=O)O)C2)c1", "note": "(stereo not shown) [Example 11, 3-(3-((4-Carbamimidamidobenzoyl)oxy)-5-methylphenyl)-5-(carboxymethyl)-4,5-dihydro-1,2-oxazole-5-carboxylic acid trifluoroacetate]", "inhibition at 3.3 µM": 100}
{"smiles": "N=C(N)Nc1ccc(C(=O)Oc2cc(CCC(=O)N[C@@H](CC(=O)O)C(=O)O)cc(C3=NOC(CC(=O)O)(C(=O)O)C3)c2)cc1", "note": "(stereo partly drawn) [Example 19, N-(3-(3-((4-carbamimidamidobenzoyl)oxy)-5-(5-carboxy-5-(carboxymethyl)-4,5-dihydro-1,2-oxazol-3-yl)phenyl)propanoyl)-L-aspartic acid]", "inhibition at 3.3 µM": 101}
{"smiles": "N=C(N)Nc1ccc(C(=O)Oc2ccc(CCC(=O)NCCC(=O)O)c(C3=NOC(CC(=O)O)(CC(=O)O)C3)c2)cc1", "note": "[Example 32, N-(3-(2-(5,5-bis(carboxymethyl)-4,5-dihydro-1,2-oxazol-3-yl)-4-((4-carbamimidamidobenzoyl)oxy)phenyl)propanoyl)-beta-alanine]", "inhibition at 3.3 µM": 100}
{"smiles": "N=C(N)Nc1ccc(C(=O)Oc2ccc(C3CCCCC3)c(C3=NOC(CC(=O)O)(C(=O)O)C3)c2)cc1", "note": "(stereo not shown) [Example 8, 3-(5-((4-Carbamimidamidobenzoyl)oxy)-2-cyclohexylphenyl)-5-(carboxymethyl)-4,5-dihydro-1,2-oxazole-5-carboxylic acid trifluoroacetate]", "inhibition at 3.3 µM": 101}
{"smiles": "N=C(N)Nc1ccc(C(=O)Oc2cccc(C3=NOC(CC(=O)O)(CC(=O)O)C3)c2)cc1", "note": "[Example 6, 2,2′-(3-(3-((4-Carbamimidamidobenzoyl)oxy)phenyl)-4,5-dihydro-1,2-oxazole-5,5-diyl)diacetic acid]", "inhibition at 3.3 µM": 100}
{"smiles": "Cc1c(OC(=O)c2ccc(NC(=N)N)cc2)cccc1C1=NOC(CC(=O)O)(C(=O)O)C1", "note": "(stereo not shown) [Example 16, 3-(3-((4-carbamimidamidobenzoyl)oxy)-2-methylphenyl)-5-(carboxymethyl)-4,5-dihydro-1,2-oxazole-5-carboxylic acid]", "inhibition at 3.3 µM": 100}
{"smiles": "CS(=O)(=O)CCNC(=O)CCc1ccc(OC(=O)c2ccc(NC(=N)N)cc2)cc1C1=NOC(CC(=O)O)(CC(=O)O)C1", "note": "[Example 27, 2,2′-(3-(5-((4-carbamimidamidobenzoyl)oxy)-2-(3-((2-(methylsulfonyl)ethyl)amino)-3-oxopropyl)phenyl)-4,5-dihydro-1,2-oxazole-5,5-diyl)diacetic acid]", "inhibition at 3.3 µM": 100}
{"smiles": "N=C(N)Nc1ccc(C(=O)Oc2ccc(CCC(=O)N[C@@H](CCC(N)=O)C(=O)O)c(C3=NOC(CC(=O)O)(CC(=O)O)C3)c2)cc1", "note": "[Example 29, N^2-(3-(2-(5,5-bis(carboxymethyl)-4,5-dihydro-1,2-oxazol-3-yl)-4-((4-carbamimidamidobenzoyl)oxy)phenyl)propanoyl)-L-glutamine]", "inhibition at 3.3 µM": 100}
{"smiles": "N=C(N)Nc1ccc(C(=O)Oc2ccc(CCC(=O)NCC(=O)O)c(C3=NOC(CC(=O)O)(CC(=O)O)C3)c2)cc1", "note": "[Example 30, N-(3-(2-(5,5-bis(carboxymethyl)-4,5-dihydro-1,2-oxazol-3-yl)-4-((4-carbamimidamidobenzoyl)oxy)phenyl)propanoyl)glycine]", "inhibition at 3.3 µM": 100}
{"smiles": "N=C(N)Nc1ccc(C(=O)Oc2cc(CCC(=O)O)cc(C3=NOC(CC(=O)O)(C(=O)O)C3)c2)cc1", "note": "(stereo not shown) [Example 14, 3-(3-((4-Carbamimidamidobenzoyl)oxy)-5-(2-carboxyethyl)phenyl)-5-(carboxymethyl)-4,5-dihydro-1,2-oxazole-5-carboxylic acid trifluoroacetate]", "inhibition at 3.3 µM": 100}
{"smiles": "CC(C)(C)C1CCC(c2ccc(OC(=O)c3ccc(NC(=N)N)cc3)cc2C2=NOC(CC(=O)O)(C(=O)O)C2)CC1", "note": "(stereo not shown) [Example 10, 3-(2-(4-tert-butylcyclohexyl)-5-((4-carbamimidamidobenzoyl)oxy)phenyl)-5-(carboxymethyl)-4,5-dihydro-1,2-oxazole-5-carboxylic acid]", "inhibition at 3.3 µM": 101}
{"smiles": "N=C(N)Nc1ccc(C(=O)Oc2ccc(CCC(=O)N3CCC(C(=O)O)CC3)c(C3=NOC(CC(=O)O)(CC(=O)O)C3)c2)cc1", "note": "[Example 33, 1-(3-(2-(5,5-Bis(carboxymethyl)-4,5-dihydro-1,2-oxazol-3-yl)-4-((4-carbamimidamidobenzoyl)oxy)phenyl)propanoyl)piperidine-4-carboxylic acid]", "inhibition at 3.3 µM": 100}
{"smiles": "N=C(N)Nc1ccc(C(=O)Oc2ccc(CCC(=O)N[C@@H](CC(=O)O)C(=O)O)c(C3=NOC(CC(=O)O)(C(=O)O)C3)c2)cc1", "note": "(stereo partly drawn) [Example 18, N-(3-(4-((4-Carbamimidamidobenzoyl)oxy)-2-(5-carboxy-5-(carboxymethyl)-4,5-dihydro-1,2-oxazol-3-yl)phenyl)propanoyl)-L-aspartic acid trifluoroacetate]", "inhibition at 3.3 µM": 100}
{"smiles": "Cc1ccc(C2=NOC(CC(=O)O)(C(=O)O)C2)cc1OC(=O)c1ccc(NC(=N)N)cc1", "note": "(stereo not shown) [Example 17, 3-(3-((4-carbamimidamidobenzoyl)oxy)-4-methylphenyl)-5-(carboxymethyl)-4,5-dihydro-1,2-oxazole-5-carboxylic acid]", "inhibition at 3.3 µM": 87}
{"smiles": "N=C(N)Nc1ccc(C(=O)Oc2ccc(CCC(=O)N[C@@H](CC(N)=O)C(=O)O)c(C3=NOC(CC(=O)O)(CC(=O)O)C3)c2)cc1", "note": "[Example 28, N^2-(3-(2-(5,5-bis(carboxymethyl)-4,5-dihydro-1,2-oxazol-3-yl)-4-((4-carbamimidamidobenzoyl)oxy)phenyl)propanoyl)-L-asparagine]", "inhibition at 3.3 µM": 100}
